Reference: ChEMBL document CHEMBL1201862, “PubChem BioAssay data set” (2004)
Active and inactive are the calls of the source.

Experiments:
[1] = target: Cytochrome P450 3A4 (Homo sapiens, UniProt P08684);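 further: CYP3A4 tested as one member of a cytochrome P450 panel screen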
[2] = target: Voltage-gated inwardly rectifying potassium channel KCNH2 (Homo sapiens, UniProt Q12809); conditions: Potency;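 further: confirmatory quantitative high-throughput screen measuring inhibition of hERG channel activity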
Voltage-gated inwardly rectifying potassium channel KCNH2, sequence (Q12809 whole entry): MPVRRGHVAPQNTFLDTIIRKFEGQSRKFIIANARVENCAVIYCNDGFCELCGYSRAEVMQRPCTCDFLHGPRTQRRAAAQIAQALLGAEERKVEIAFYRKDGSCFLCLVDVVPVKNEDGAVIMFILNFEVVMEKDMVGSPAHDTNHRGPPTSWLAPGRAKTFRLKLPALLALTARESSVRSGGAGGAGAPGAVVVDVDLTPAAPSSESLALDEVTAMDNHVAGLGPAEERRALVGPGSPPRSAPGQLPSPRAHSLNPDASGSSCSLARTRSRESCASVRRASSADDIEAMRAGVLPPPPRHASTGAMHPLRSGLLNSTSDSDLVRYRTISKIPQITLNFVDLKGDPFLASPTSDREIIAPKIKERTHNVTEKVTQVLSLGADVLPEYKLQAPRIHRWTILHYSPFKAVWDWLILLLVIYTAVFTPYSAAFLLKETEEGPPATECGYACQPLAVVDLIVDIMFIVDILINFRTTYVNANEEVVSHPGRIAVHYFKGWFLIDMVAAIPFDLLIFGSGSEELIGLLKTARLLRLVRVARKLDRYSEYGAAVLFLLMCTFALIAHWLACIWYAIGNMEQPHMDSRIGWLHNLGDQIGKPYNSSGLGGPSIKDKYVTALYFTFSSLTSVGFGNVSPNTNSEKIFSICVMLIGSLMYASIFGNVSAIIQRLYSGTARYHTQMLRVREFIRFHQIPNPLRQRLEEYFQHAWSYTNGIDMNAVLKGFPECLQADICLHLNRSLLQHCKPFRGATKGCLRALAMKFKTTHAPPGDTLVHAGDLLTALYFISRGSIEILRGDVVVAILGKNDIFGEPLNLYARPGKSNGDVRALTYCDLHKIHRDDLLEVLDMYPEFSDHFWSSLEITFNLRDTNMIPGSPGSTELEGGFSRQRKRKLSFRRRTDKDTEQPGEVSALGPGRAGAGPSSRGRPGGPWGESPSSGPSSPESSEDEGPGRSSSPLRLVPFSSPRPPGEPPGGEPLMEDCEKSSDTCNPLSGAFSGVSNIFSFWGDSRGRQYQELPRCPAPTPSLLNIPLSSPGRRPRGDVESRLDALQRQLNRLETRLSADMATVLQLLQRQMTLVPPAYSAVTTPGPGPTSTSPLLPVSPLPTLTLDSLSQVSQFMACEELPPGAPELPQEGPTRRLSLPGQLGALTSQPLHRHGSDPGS

[3] = cytotoxicity in HMLE control line with eGFP shRNA, dose response, counter-screen for HMLE_sh_ECad selective toxicity project, cell-based, HMLE_sh_eGFP, luminescence (AID 463074); assay type: functional, Homo sapiens;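 further: HMLE human mammary epithelial cells expressing control shRNA against eGFP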
[4] = Luminescence Cell-Based Dose Retest to Confirm Inhibitors of Cancer Stem Cells. [Related pubchem assays (depositor defined):AID2717, AID2721]; assay type: functional; conditions: Homo sapiens
[5] = target: Dual specificity protein kinase CLK1 (Homo sapiens, UniProt P49759); assay: CLK1 kinase inhibitors, off-target check, dose response, selectivity assay for Dyrk1A inhibitor project, biochemical, cherry-picked samples (AID 588811)
Dual specificity protein kinase CLK1, sequence (P49759 whole entry): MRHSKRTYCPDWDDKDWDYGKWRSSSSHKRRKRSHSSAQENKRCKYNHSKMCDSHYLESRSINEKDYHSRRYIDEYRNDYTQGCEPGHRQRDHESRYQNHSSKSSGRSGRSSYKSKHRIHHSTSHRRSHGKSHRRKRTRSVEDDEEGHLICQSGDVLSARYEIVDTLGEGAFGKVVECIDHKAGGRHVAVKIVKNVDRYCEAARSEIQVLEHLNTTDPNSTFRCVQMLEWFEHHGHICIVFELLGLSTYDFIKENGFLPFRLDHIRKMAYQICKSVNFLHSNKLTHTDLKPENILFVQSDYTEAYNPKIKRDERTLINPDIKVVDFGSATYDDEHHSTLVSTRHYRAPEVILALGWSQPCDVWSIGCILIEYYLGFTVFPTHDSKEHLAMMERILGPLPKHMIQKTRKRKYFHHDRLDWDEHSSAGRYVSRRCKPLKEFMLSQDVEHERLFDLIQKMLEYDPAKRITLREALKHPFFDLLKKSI

[6] = target: Dual specificity tyrosine-phosphorylation-regulated kinase 1A (Rattus norvegicus, UniProt Q63470); assay type: biochemical, Homo sapiens
[7] = system: MDCK; assay: MDCK cell cytotoxicity, dose response, cytotoxicity control (AID 540296); assay type: functional; conditions: Canis lupus familiaris
[8] = system: MDCK; assay: antiviral activity against H1N1 influenza, dose response, cell-based, strain KY180 (AID 540254); assay type: functional; conditions: Canis lupus familiaris
[9] = Luminescence Cell-Based Dose Confirmation HTS to Identify Inhibitors of Platelet Dense Granule Release. [Related pubchem assays: 1663 (Primary HTS), 1678 (Summary of Project)]; assay type: functional
[10] = target: Luciferin 4-monooxygenase (Photinus pyralis, UniProt P08659); assay: firefly luciferase enzyme inhibitors, dose response, biochemical, luminescence (AID 1891)
Luciferin 4-monooxygenase, sequence (P08659 whole entry): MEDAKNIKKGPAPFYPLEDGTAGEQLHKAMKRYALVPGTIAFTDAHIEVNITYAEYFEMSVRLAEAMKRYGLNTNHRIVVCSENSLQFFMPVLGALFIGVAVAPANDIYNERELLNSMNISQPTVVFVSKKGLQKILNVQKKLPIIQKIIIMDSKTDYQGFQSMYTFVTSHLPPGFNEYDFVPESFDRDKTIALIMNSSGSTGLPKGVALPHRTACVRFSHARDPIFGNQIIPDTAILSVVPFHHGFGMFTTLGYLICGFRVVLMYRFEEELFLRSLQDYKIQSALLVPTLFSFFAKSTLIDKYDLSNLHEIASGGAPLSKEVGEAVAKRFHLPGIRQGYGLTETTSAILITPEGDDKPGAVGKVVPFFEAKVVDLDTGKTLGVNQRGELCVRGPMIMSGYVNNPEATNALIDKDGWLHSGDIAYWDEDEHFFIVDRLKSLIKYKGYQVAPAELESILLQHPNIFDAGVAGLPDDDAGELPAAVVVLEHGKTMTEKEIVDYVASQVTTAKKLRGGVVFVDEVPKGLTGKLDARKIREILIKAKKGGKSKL

[11] = target: Nonstructural protein 1 (Influenza A virus, UniProt Q194T2); assay type: functional, Influenza A virus (A/California/07/2009(H1N1))
Nonstructural protein 1, sequence (Q194T2 whole entry): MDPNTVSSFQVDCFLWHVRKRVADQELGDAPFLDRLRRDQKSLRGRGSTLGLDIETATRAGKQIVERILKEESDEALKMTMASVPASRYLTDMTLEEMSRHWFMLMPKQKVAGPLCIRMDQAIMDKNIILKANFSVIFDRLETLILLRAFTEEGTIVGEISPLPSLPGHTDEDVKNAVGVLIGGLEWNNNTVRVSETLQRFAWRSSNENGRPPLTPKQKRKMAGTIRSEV

[12] = system: BJ; assay: cytotoxicity toward BJ-TERT-LT-ST fibroblasts, dose response, cell-based, RAS-independent, luminescence (AID 1935); assay type: functional; conditions: Homo sapiens;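 further: BJ fibroblasts immortalized with TERT plus LT and ST oncogenes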
[13] = cells; assay type: functional, cell-based
[14] = cytotoxicity toward DRD oncogenic fibroblasts, dose response, cell-based, non-viral oncogenic, luminescence (AID 1934); assay type: functional; conditions: Homo sapiens
[15] = cytotoxicity toward NIH3T3 fibroblasts, dose response, counter-screen, cell-based, ATP luminescence, mouse fibroblasts (AID 2010); assay type: functional;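 further: cells exposed to compound for about 90 hours before reading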
[16] = cytotoxicity in MIN6 insulinoma cells, dose response, cytotoxicity control, cell-based, mouse insulinoma (AID 2122); assay type: functional;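 further: confirmatory high-throughput counterscreen run to flag cytotoxic compounds; mouse MIN-6 beta cells carrying an insulin promoter eGFP reporter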
[17] = insulin promoter down-regulators in MIN6 cells, imaging, high-content screening, mouse beta cells (AID 1628); assay type: functional
[18] = system: INS1; assay: beta cell apoptosis inhibitors, cytokine rescue, dose response, luminescence, retest (AID 449756); assay type: functional, cell-based; conditions: Rattus norvegicus;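 further: cell death triggered by IL-1 beta plus TNF-alpha plus IFN-gamma mixture; protective hits raise ATP signal compared with cytokine alone wells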
[19] = control 3'UTR Renilla luciferase suppression, dose response, counter-screen for Shn3 inhibitor project, cell-based, Clone20-Shn3RL, cherry-picked (AID 624133); assay type: functional
[20] = HepG2 cell cytotoxicity, dose response, cytotoxicity control for Shn3 inhibitor project, CellTiter-Glo, cherry-picked (AID 624134); assay type: functional, cell-based
[21] = system: BJ; assay: cytotoxicity toward BJ-TERT fibroblasts, dose response, cell-based, RAS-independent, luminescence (AID 1933); assay type: functional; conditions: Homo sapiens
[22] = HEK293T cytotoxicity, dose response, cytotoxicity control for miR-122 modulator project, cell-based, activator set, cherry-pick (AID 720690); assay type: functional;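 further: HEK293T human cells scored for general mammalian cytotoxicity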
[23] = system: BJ; assay: cells; assay type: functional, cell-based; conditions: Homo sapiens
[24] = inhibitors of intracellular T. cruzi replication, confirmation, NIH3T3 host cells, beta-gal luminescence (AID 2044); assay type: functional, cell-based;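 further: intracellular parasites grown in NIH/3T3 mouse fibroblasts as host cells; luminescent beta-galactosidase reporter signal from transgenic T. cruzi replicating inside host cells; inhibitors lower the luminescence signal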
[25] = Shn3 3'UTR reporter inhibitors, dose response, cell-based, Clone20 osteoblasts, firefly luciferase, cherry-picked (AID 624132); assay type: functional;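 further: firefly luciferase luminescence from reporter carrying the Shn3 3'UTR in osteoblasts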
[26] = HEK293T cytotoxicity, dose response, cytotoxicity control for miR-122 modulator project, cell-based, inhibitor set, cherry-pick, set 2 (AID 720697); assay type: functional
[27] = cells; assay type: functional, cell-based; remark: listed apart in the source

Cytochrome P450 3A4, sequence (P08684 whole entry): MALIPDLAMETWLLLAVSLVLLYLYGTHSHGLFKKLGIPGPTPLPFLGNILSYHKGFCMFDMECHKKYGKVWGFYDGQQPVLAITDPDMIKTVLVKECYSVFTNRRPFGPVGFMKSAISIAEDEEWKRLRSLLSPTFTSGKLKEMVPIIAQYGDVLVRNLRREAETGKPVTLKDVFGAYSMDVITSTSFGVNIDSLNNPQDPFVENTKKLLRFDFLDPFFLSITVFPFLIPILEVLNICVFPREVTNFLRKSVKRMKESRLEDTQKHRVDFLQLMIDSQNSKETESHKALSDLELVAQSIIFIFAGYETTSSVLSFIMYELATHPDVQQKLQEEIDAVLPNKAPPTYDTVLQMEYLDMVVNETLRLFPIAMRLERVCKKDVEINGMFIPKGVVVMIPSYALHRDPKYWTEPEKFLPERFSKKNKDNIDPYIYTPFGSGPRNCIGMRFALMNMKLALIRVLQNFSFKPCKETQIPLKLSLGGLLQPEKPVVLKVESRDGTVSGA

Question: What does the source list for `CCn1c(=O)c2[nH]c(-c3ccccc3)nc2n(CC)c1=O`?
Answer: AC50 [1]: 3.98 µM (inconclusive); AC50 [2]: 35.5 µM (inconclusive)

Question: Which results are given for `O=C1c2ccccc2C(=O)N1CC#CCN1CCN(C(c2ccccc2)c2ccccc2)CC1`?
Answer: AC50 [3]: 25.2 µM (active); AC50 [4]: 2.06 µM (active)

Question: With `COc1ccc(C(=O)c2sc(Nc3ccccc3F)nc2N)cc1` as the compound, how does the AC50 [5] read?
Answer: Its AC50 is 3.41 µM (active).

Question: What about the AC50 [6] of the same compound?
Answer: Its AC50 is 1.63 µM (active).

Question: For `COc1ccc(N2CCN(CCCN)CC2)cc1`, which CC50 [7] is on record?
Answer: The CC50 was > 40 µM (active).

Question: What about the IC50 [8] of the same compound?
Answer: Its IC50 is 23 µM (active).

Question: And the EC50 [9]?
Answer: The EC50 was > 112 µM (not active).

Question: And the EC50 [10]?
Answer: Its EC50 is > 112 µM (not active).

Question: And the IC50 [11]?
Answer: Its IC50 is 39.8 µM (active).

Question: For `Cc1ccc(Nc2c(-c3ccccn3)nc3cc(C)ccn23)cc1`, which EC50 [12] is on record?
Answer: Its EC50 is 7.83 µM (inconclusive).

Question: And the EC50 [13]?
Answer: Its EC50 is 4.69 µM (active).

Question: And the EC50 [14]?
Answer: The EC50 was 13.2 µM (active).

Question: And the EC50 [15]?
Answer: Its EC50 is 4.56 µM (active).

Question: What about the IC50 [16] of the same compound?
Answer: Its IC50 is 0.61 µM (active).

Question: What about the IC50 [17] of the same compound?
Answer: Its IC50 is 1.7 µM (active).

Question: And the AC50 [18]?
Answer: Its AC50 is 4.81 µM (active).

Question: And the AC50 [19]?
Answer: The AC50 was 61.3 µM (active).

Question: What about the AC50 [20] of the same compound?
Answer: Its AC50 is 4.06 µM (active).

Question: What about the EC50 [21] of the same compound?
Answer: Its EC50 is 7.37 µM (active).

Question: And the AC50 [22]?
Answer: Its AC50 is 15.5 µM (active).

Question: And the EC50 [23]?
Answer: The EC50 was 12.2 µM (active).

Question: What about the EC50 [24] of the same compound?
Answer: Its EC50 is 0.951 µM (active).

Question: And the AC50 [25]?
Answer: Its AC50 is 1.36 µM (active).

Question: What about the AC50 [26] of the same compound?
Answer: Its AC50 is 5.48 µM (active).

Question: And the EC50 [27]?
Answer: The EC50 was 49.3 µM (active).
